Entries after “also recorded” stand apart in the source; their conditions may differ.
Key:
[1] = test system: pain model rats; assay: Analgesic effect in pain model rats; type: in vivo; details: subcutaneous, 200 mg/kg based on a mepivacaine content
Method: Mepivacaine and the prepared mepivacaine injection (E-A′-Mep) each were subcutaneously injected into different pain model rats at a dose of 200 mg/kg based on a mepivacaine content. A time required for a rat to have a normal response to deep pain and electric stimulation and a time required for a rat to return from a motor weakness state to a normal state were then recorded; and when half of rats returned to a normal state, the test was stopped.

[2] = test system: mice; assay: Acute toxicity test (LD50, MTD); type: in vivo
Method: With OE-2 in the patent application 202111500943.7 as a reference formulation, the OE-1′ obtained in Example 1 was subjected to an acute toxicity test, and experimental steps were as follows:
OE-2 and 0E-1′ each were administered to different mice at a time through intragastric administration, subcutaneous injection, and intraperitoneal injection with a dose gradient from 1 mg/kg to 50,000 mg/kg; poisoning characteristics of mice within 24 h were observed, and a mortality rate was counted; and an accurate LD50 value was calculated according to the probability unit method and the karber's method, and finally experimental groups were compared in terms of acute toxicity.
Note: The larger the LD50 value in the experimental group, the smaller the acute toxicity.

[3] = test system: red blood cell (RBC) suspension; assay: Hemolysis test; type: cell-based; details: 3 mg/mL to 15 mg/mL, 37° C., 3 h; hemolysis rate lower than 5% means no hemolytic effect
Method: Preparation of test samples: negative control: 2.5 mL of a red blood cell (RBC) suspension+2.5 mL of a 0.9% sodium chloride injection; positive control: 2.5 mL of an RBC suspension+2.5 mL of distilled water; and experimental group: 2.5 mL of an RBC suspension+2.2 mL of a 0.9% sodium chloride injection+0.3 mL of a formulation to be tested (3 mg/mL to 15 mg/mL).
Each sample was incubated in a 37° C. thermostatic water bath for 3 h and then centrifuged (3,000 r/min, 5 min) to obtain a supernatant, the supernatant was allowed to stand at room temperature for 30 min, and the absorbance of the sample was determined at 540 nm by a microplate reader; and the influence of plasma contents was eliminated with the absorbance of the negative control group, and then a hemolysis rate (%) of the experimental group could be calculated according to the following formula: HL%=At/Apc×100%, where At represents an absorbance value of a test sample and APC represents an absorbance value of the positive control. When a hemolysis rate is lower than 5%, it means that the formulation of the experimental group has no hemolytic effect at a corresponding concentration.

[4] = test system: mice; assay: Cardiovascular system-associated safety evaluation; type: in vivo; details: subcutaneous, 15,000 mg/kg, measured daily in the following week
Method: Different formulations each were subcutaneously injected into different mice at a dose of 15,000 mg/kg, and a blood pressure and a heart rate of mice in each group were measured daily by […] in the following week.

[5] = test system: mice; assay: Respiratory system and blood oxygen saturation tests; type: in vivo; details: subcutaneous, 15,000 mg/kg, measured daily in the following week
Method: Different formulations each were subcutaneously injected into different mice at a dose of 15,000 mg/kg, and a breathing rate and a blood oxygen saturation of mice in each group were measured daily by a small animal non-invasive pulse oximeter in the following week.

[6] = Alcohol metabolite biodistribution test; type: in vivo, mice; details: subcutaneous, 15,000 mg/kg; urine, blood, heart, liver, spleen, lung, kidney; gas chromatograph
Method: Preparation of standard solutions: an appropriate amount of methanol or ethanol was accurately weighed and prepared with water into a 10.0 mg/mL standard solution as a stock solution, and the stock solution was further diluted into aqueous solutions with concentrations of 0.10 mg/mL, 0.20 mg/mL, 0.50 mg/mL, 0.80 mg/mL, 1.00 mg/mL, 2.00 mg/mL, and 3.00 mg/mL, respectively. Preparation of an internal standard solution: an appropriate amount of tert-butyl alcohol (TBA) was accurately weighed and prepared with water into a 5.0 mg/mL TBA stock solution, the TBA stock solution was diluted with water to obtain a 40.0 μg/mL TBA working solution, and the TBA working solution was refrigerated and stored in a closed manner.
Different formulations each were subcutaneously injected into different mice at a dose of 15,000 mg/kg, and then the urine, blood, heart, liver, spleen, lung, and kidney were collected from the mice at different time points. 0.10 mL of each of the standard solutions, urine, blood, and tissue extracts was taken and mixed with 0.50 mL of a 40.0 μg/mL TBA working solution, and a resulting mixture was tested by a gas chromatograph. A standard curve with a linear regression coefficient of 0.999 or higher was plotted with results of the standard solutions, and then a methanol or ethanol content in each sample was calculated. […]

[7] = test system: mice; assay: Chronic toxicity test; type: in vivo; details: subcutaneous, 15,000 mg/kg, 6 months
Method: Different formulations each were subcutaneously injected into different mice at a dose of 15,000 mg/kg, and the continuous behavioral observation, routine blood test, biochemical index test, and organ weight measurement were conducted for 6 months.

[8] = test system: Hypertension model rats; assay: Antihypertensive effect in hypertension model rats; details: 40 mg/kg based on an irbesartan content; irbesartan orally, E-1′-Irbe subcutaneous injection
Method: Hypertension model rats were treated with irbesartan and the prepared irbesartan injection (E-1′-Irbe) at a dose of 40 mg/kg based on an irbesartan content, where the irbesartan was administered orally and the irbesartan injection (E-1′-Irbe) was administered through subcutaneous injection. A drug concentration in blood and a blood pressure level were detected at a preset time point.

[9] = test system: mice; assay: Antibody-producing effect (IgG) in mice; type: in vivo; details: subcutaneous, 50 mg/kg based on an ovalbumin content on day 1 and day 15
Method: Ovalbumin and the prepared ovalbumin injection (E-C′-Ova) were subcutaneously injected into different mice at a dose of 50 mg/kg based on an ovalbumin content on day 1 and day 15, and an IgG concentration was detected.

## Cc1cccc(C)c1NC(=O)C1CCCCN1C (centres unmarked) [Normal saline (NS) + mepivacaine, mepivacaine]
[1]
  Time required for half of rats to have a normal response, Deep pain: 60 min
  Time required for half of rats to have a normal response, Electric stimulation: 60 min
  Time required for half of rats to have a normal response, Motor weakness: 60 min

## CCOC1OCC(COCC2COC(OCC)O2)O1 (centres unmarked) [OE-1′, 4,4′-(Oxybis(Methylene))Bis(2-Ethoxy-1,3-Dioxolane)]
[2]; mouse, in vivo
  tolerance dose of mice (MTD): higher than a tolerance dose of mice for OE-2
[2]; single administration, intragastric, subcutaneous, intraperitoneal, mortality within 24 h
  LD50 value: significantly higher than an LD50 value of OE-2
[3]
  hemolytic effect (hemolysis rate): does not lead to a hemolytic effect
[4]
  cardiovascular function (blood pressure and heart rate): at a normal level
[5]
  blood oxygen saturation: at normal levels
  breathing rate: at normal levels
[6]
  methanol or ethanol content in each sample: a trace amount of ethanol is detected in each sample
[7]
  organ mass: significantly higher than an organ mass of mice in the OE-2 group

## CCCCC1=NC2(CCCC2)C(=O)N1Cc1ccc(-c2ccccc2-c2nnn[nH]2)cc1 [irbesartan]
[8]
  blood pressure level: can reduce a blood pressure; also recorded: rebounds rapidly
  drug concentration in blood: decreases rapidly

B1: ovalbumin (protein, UniProt P01012 2-386, looked up)
Ovalbumin: GSIGAASMEFCFDVFKELKVHHANENIFYCPIAIMSALAMVYLGAKDSTRTQINKVVRFDKLPGFGDSIEAQCGTSVNVHSSLRDILNQITKPNDVYSFSLASRLYAEERYPILPEYLQCVKELYRGGLEPINFQTAADQARELINSWVESQTNGIIRNVLQPSSVDSQTAMVLVNAIVFKGLWEKAFKDEDTQAMPFRVTEQESKPVQMMYQIGLFRVASMASEKMKILELPFASGTMSMLVLLPDEVSGLEQLESIINFEKLTEWTSSNVMEERKIKVYLPRMKMEEKYNLTSVLMAMGITDVFSSSANLSGISSAESLKISQAVHAAHAEINEAGREVVGSAEAGVDAASVSEEFRADHPFLFCIKHIATNAVLFFGRCVSP
notes: ovalbumin alone, injected subcutaneously as comparator
[9]
  IgG concentration: decreases rapidly
